Test results as given in patent US20100305068A1, “COMPOUNDS AND METHODS FOR MODULATING PROTEIN TRAFFICKING” (priority 2006, published 2010).

system: pdr5 ypt1^ts cells; test: microbe, parasite or virus in culture; format: cell-based, yeast; conditions: not given
Text: The activity of the compounds as modulators of protein trafficking may be measured in the assays described herein that evaluate the ability of a compound to rescue an impairment in protein trafficking. For example, the yeast mutant cell line ypt1^ts can be used to identify compounds that rescue cells from the lethal phenotype of a mutant YPT1 allele (see, e.g., Examples and Schmitt et al. (1988) Cell 53:635-47). The activity may be measured, for example, in a whole yeast cell assay using 384-well screening protocol and an optical density measurement.
The yeast mutant cell line ypt1^ts suppresses, in a temperature dependent fashion, the dominant-lethal phenotype of a mutant YPT1 allele (Schmitt et al. (1988) Cell 53:635-47). ypt1^ts cells grow normally at temperatures up to 30° C., but are growth arrested at 37° C. (Id.).
A library of compounds (“The Spectrum Collection”) obtained from Microsource Discovery Systems, Inc. (Gaylordsville, Conn.) was screened to assess the ability of individual compounds to restore growth of ypt1^ts cells. Screening was carried out using ypt1^ts cells containing a mutation in the pdr5 gene (resulting in inactivation of a membrane efflux pump). The effect of the compounds was measured in pdr5 ypt1^ts cells cultured at 37° C.

SMILES | optical density, 3.13 uM | optical density, 12.5 uM | optical density, 50 uM
CCCSP(=O)(OCC)SCCC [ETHOPROP] | 0.118 | 0.134 | 0.251

same assay, conditions: Saccharomyces cerevisiae, read-out: ypt1-ts MRC (minimal rescue concentration)

SMILES | minimal effective concentration [µM]
COc1ccc2cc([C@H](C)C(=O)O)ccc2c1 [(+)NAPROXEN, reference compound] | 25

same assay, conditions: Saccharomyces cerevisiae; Table 2; lowest concentration tested giving growth above the 0 μM background; 37° C.; read-out: ypt1-ts MRC (minimal rescue concentration)

SMILES | minimal effective concentration [µM]
CC(C)=CCOc1c2occc2cc2ccc(=O)oc12 [IMPERATORIN] | 12.5
C[C@]12CCC3C(CC[C@H]4C[C@H](O)CC[C@]34C)C1CC[C@@H]2O (stereo partly shown) [EPIANDROSTANEDIOL] | 12.5
CCOC(=O)N1CCC(=C2c3ccc(Cl)cc3CCc3cccnc32)CC1 [LORATADINE, reference compound] | 25
CC(C)=CCOc1cc2oc(=O)ccc2cc1O [PRENYLETIN] | 25
COc1cccc(/C=C/C(=O)O)c1C(C)C [2-ISOPROPYL-3- METHOXYCINNAMIC ACID] | 12.5

same assay, conditions: Table 2; 0.39 μM compound; 37° C.; background (0 μM) 0.058

SMILES | optical density, ypt1-ts, 0.39
CC(C)=CCOc1c2occc2cc2ccc(=O)oc12 [IMPERATORIN] | 0.084
C[C@]12CCC3C(CC[C@H]4C[C@H](O)CC[C@]34C)C1CC[C@@H]2O (stereo partly shown) [EPIANDROSTANEDIOL] | 0.082
CC(C)=CCOc1cc2oc(=O)ccc2cc1O [PRENYLETIN] | 0.087
COc1cccc(/C=C/C(=O)O)c1C(C)C [2-ISOPROPYL-3- METHOXYCINNAMIC ACID] | 0.097

same assay, conditions: Table 2; 0.78 μM compound; 37° C.; background (0 μM) 0.058

SMILES | optical density, ypt1-ts, 0.78
CC(C)=CCOc1c2occc2cc2ccc(=O)oc12 [IMPERATORIN] | 0.064
C[C@]12CCC3C(CC[C@H]4C[C@H](O)CC[C@]34C)C1CC[C@@H]2O (stereo partly shown) [EPIANDROSTANEDIOL] | 0.073
CC(C)=CCOc1cc2oc(=O)ccc2cc1O [PRENYLETIN] | 0.072
COc1cccc(/C=C/C(=O)O)c1C(C)C [2-ISOPROPYL-3- METHOXYCINNAMIC ACID] | 0.079

same assay, conditions: Table 2; 1.56 μM compound; 37° C.; background (0 μM) 0.058

SMILES | optical density, ypt1-ts, 1.56
CC(C)=CCOc1c2occc2cc2ccc(=O)oc12 [IMPERATORIN] | 0.066
C[C@]12CCC3C(CC[C@H]4C[C@H](O)CC[C@]34C)C1CC[C@@H]2O (stereo partly shown) [EPIANDROSTANEDIOL] | 0.068
CC(C)=CCOc1cc2oc(=O)ccc2cc1O [PRENYLETIN] | 0.07
COc1cccc(/C=C/C(=O)O)c1C(C)C [2-ISOPROPYL-3- METHOXYCINNAMIC ACID] | 0.086

same assay, conditions: Table 2; 3.13 μM compound; 37° C.; background (0 μM) 0.058

SMILES | optical density, ypt1-ts, 3.13
CC(C)=CCOc1c2occc2cc2ccc(=O)oc12 [IMPERATORIN] | 0.073
C[C@]12CCC3C(CC[C@H]4C[C@H](O)CC[C@]34C)C1CC[C@@H]2O (stereo partly shown) [EPIANDROSTANEDIOL] | 0.082
CC(C)=CCOc1cc2oc(=O)ccc2cc1O [PRENYLETIN] | 0.087
COc1cccc(/C=C/C(=O)O)c1C(C)C [2-ISOPROPYL-3- METHOXYCINNAMIC ACID] | 0.111

same assay, conditions: Table 2; 6.25 μM compound; 37° C.; background (0 μM) 0.058

SMILES | optical density, ypt1-ts, 6.25
CC(C)=CCOc1c2occc2cc2ccc(=O)oc12 [IMPERATORIN] | 0.082
C[C@]12CCC3C(CC[C@H]4C[C@H](O)CC[C@]34C)C1CC[C@@H]2O (stereo partly shown) [EPIANDROSTANEDIOL] | 0.099
CC(C)=CCOc1cc2oc(=O)ccc2cc1O [PRENYLETIN] | 0.09
COc1cccc(/C=C/C(=O)O)c1C(C)C [2-ISOPROPYL-3- METHOXYCINNAMIC ACID] | 0.123

same assay, conditions: Table 2; 12.5 μM compound; 37° C.; background (0 μM) 0.058

SMILES | optical density, ypt1-ts, 12.5
CC(C)=CCOc1c2occc2cc2ccc(=O)oc12 [IMPERATORIN] | 0.147
C[C@]12CCC3C(CC[C@H]4C[C@H](O)CC[C@]34C)C1CC[C@@H]2O (stereo partly shown) [EPIANDROSTANEDIOL] | 0.145
CC(C)=CCOc1cc2oc(=O)ccc2cc1O [PRENYLETIN] | 0.121
COc1cccc(/C=C/C(=O)O)c1C(C)C [2-ISOPROPYL-3- METHOXYCINNAMIC ACID] | 0.184

same assay, conditions: Table 2; 25 μM compound; 37° C.; background (0 μM) 0.058

SMILES | optical density, ypt1-ts, 25
CC(C)=CCOc1c2occc2cc2ccc(=O)oc12 [IMPERATORIN] | 0.244
C[C@]12CCC3C(CC[C@H]4C[C@H](O)CC[C@]34C)C1CC[C@@H]2O (stereo partly shown) [EPIANDROSTANEDIOL] | 0.321
CC(C)=CCOc1cc2oc(=O)ccc2cc1O [PRENYLETIN] | 0.292
COc1cccc(/C=C/C(=O)O)c1C(C)C [2-ISOPROPYL-3- METHOXYCINNAMIC ACID] | 0.397
